Reference: PubChem BioAssay (NCI)
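A five-concentration, 48-hour dose response in 96-well plates underlies each endpoint, interpolated linearly between surrounding concentrations. GI50 marks 50% less growth. TGI: total growth inhibition.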

Assays:
Assay in all cases: NCI anticancer screen, dose series, 48 h
CCRF-CEM leukemia = tested on: CCRF-CEM leukemia
NCI-H226 lung = tested on: NCI-H226 lung
HCC-2998 colon = tested on: HCC-2998 colon
MOLT-4 leukemia = tested on: MOLT-4 leukemia
HT29 colon = tested on: HT29 colon
A498 renal = tested on: A498 renal
UACC-257 melanoma = tested on: UACC-257 melanoma
M14 melanoma = tested on: M14 melanoma
MDA-MB-231 breast = tested on: MDA-MB-231 breast
NCI/ADR-RES ovarian = tested on: NCI/ADR-RES ovarian

| SMILES | GI50 (CCRF-CEM leukemia) | TGI (CCRF-CEM leukemia) | GI50 (NCI-H226 lung) | TGI (NCI-H226 lung) | GI50 (HCC-2998 colon) | TGI (HCC-2998 colon) | GI50 (MOLT-4 leukemia) | TGI (MOLT-4 leukemia) | GI50 (HT29 colon) | TGI (HT29 colon) | GI50 (A498 renal) | TGI (A498 renal) | GI50 (UACC-257 melanoma) | TGI (UACC-257 melanoma) | GI50 (M14 melanoma) | TGI (M14 melanoma) | GI50 (MDA-MB-231 breast) | TGI (MDA-MB-231 breast) | GI50 (NCI/ADR-RES ovarian) | TGI (NCI/ADR-RES ovarian) |
| --- | --- | --- | --- | --- | --- | --- | --- | --- | --- | --- | --- | --- | --- | --- | --- | --- | --- | --- | --- | --- |
| C[C@H]1[C@H](C)CC[C@]2(C(=O)N3CCN(C)CC3)CC[C@]3(C)C(=CC[C@@H]4[C@@]5(C)C/C(=C/c6cccnc6)C(=O)C(C)(C)[C@@H]5CC[C@]43C)[C@H]12 | 2 µM | 5.64 µM | 1.81 µM | 3.77 µM | 1.28 µM | 2.67 µM | 1.92 µM | 5.75 µM | 0.926 µM | 2.67 µM | 1.52 µM | 2.92 µM | 1.41 µM | 2.91 µM | 0.802 µM | 2.3 µM | 0.943 µM | 2.25 µM | – | – |
| N#C/C(=C1\NN=C(N)C(c2ccc(Cl)cc2)=C1O)c1ccc(Cl)cc1 | – | > 100 µM | – | > 100 µM | – | > 100 µM | – | > 100 µM | – | > 100 µM | – | > 100 µM | – | > 100 µM | – | > 100 µM | – | – | – | – |
| NC(=O)c1cc([N+](=O)[O-])c(Cl)c([N+](=O)[O-])c1 | – | – | 1.68 µM | 3.22 µM | 2.61 µM | 7.46 µM | 2.62 µM | 5.68 µM | 2.58 µM | 5.51 µM | 13.8 µM | 26.8 µM | 3.87 µM | 15 µM | 1.91 µM | 4.72 µM | 1.96 µM | 3.84 µM | 3.67 µM | 13.9 µM |
| O=C(O)CCSCCCN1C(=O)c2ccccc2C1=O | – | – | – | > 100 µM | – | > 100 µM | – | > 100 µM | – | > 100 µM | – | – | – | > 100 µM | – | – | – | – | – | – |
| NC(=NC1CCCCCCC1)c1ccc(N2CCN(c3ccc(C(N)=NC4CCCCCCC4)cc3)CC2)cc1 | 89.8 µM | > 100 µM | 11.5 µM | 39.1 µM | 14.4 µM | 48 µM | 47.8 µM | > 100 µM | 4.88 µM | 23.1 µM | – | – | – | – | 30.8 µM | > 100 µM | 12.5 µM | 30.6 µM | > 100 µM | > 100 µM |
| O=C1OC(CC(=O)c2ccc(Cl)cc2Cl)C(Cl)=C1Cl (stereo not given) | – | > 72.7 µM | – | > 89.5 µM | – | 29.4 µM | – | 66.7 µM | – | 36 µM | – | > 100 µM | – | > 100 µM | – | > 91.9 µM | – | – | – | – |
| Cc1ccc(NC(=O)c2cc3ccccc3c(N=Nc3ccccc3O)c2O)c(C)c1 | – | 4.75 µM | – | 13.1 µM | – | 18.7 µM | – | 10.1 µM | – | 13.8 µM | – | – | – | 20 µM | – | 12.7 µM | – | 8.77 µM | – | 5.71 µM |
| Cc1cccc(NC(=O)c2cc3cc(N=Nc4ccccc4Cl)ccc3oc2=O)c1 | – | > 100 µM | – | 56.2 µM | – | 70.4 µM | – | > 100 µM | – | > 100 µM | – | > 100 µM | – | > 100 µM | – | 85.9 µM | – | – | – | – |
| O=C(/C=C/c1ccc(Cl)c(Cl)c1)c1ccc(F)cc1 | – | 20.5 µM | – | 92.6 µM | – | 32.8 µM | – | 38 µM | – | 27.6 µM | – | > 100 µM | – | 58 µM | – | 30.5 µM | – | – | – | – |
| CC(=O)NCCSC(=O)c1ccccc1 | – | 0.49 µM | – | 0.413 µM | – | – | – | 0.0902 µM | – | > 78.2 µM | – | – | – | 0.419 µM | – | 0.242 µM | – | 7.71 µM | – | 0.688 µM |
| O=C1CC(c2ccc3c(c2)OCO3)Nc2cc3c(cc21)OCO3 (stereo not given) | 0.363 µM | > 100 µM | 13.9 µM | > 100 µM | 0.694 µM | 11 µM | 0.56 µM | > 100 µM | 0.374 µM | 22.3 µM | 0.169 µM | 0.862 µM | 21.3 µM | 83 µM | – | – | – | – | 0.372 µM | 83.4 µM |
| Cc1cc(C)c2c(c1)Nc1ccccc1P2c1ccccc1 (stereo not given) | – | – | – | – | – | 60 µM | – | > 100 µM | – | > 100 µM | – | – | – | – | – | > 100 µM | – | – | – | – |
| Nc1c(Br)c(=O)[nH]c(=O)n1COCCO | – | > 100 µM | – | – | – | > 100 µM | – | > 100 µM | – | > 100 µM | – | – | – | > 100 µM | – | > 100 µM | – | – | – | – |
| CCCCCCC#Cc1ccccc1C#CCO | – | – | – | – | 23.7 µM | 42.6 µM | – | – | – | – | – | – | 26.5 µM | 62.7 µM | 28.4 µM | 74.9 µM | > 100 µM | > 100 µM | 18.7 µM | 34.4 µM |
| O=c1c2cc(Br)ccc2nc(-c2ccccc2Cl)n1NCC1(O)OCC(O)C(O)C1O (stereo not given) | – | > 100 µM | – | > 100 µM | – | – | – | > 100 µM | – | > 100 µM | – | > 100 µM | – | > 100 µM | – | > 100 µM | – | – | – | – |
| N#Cc1cccc(C(=O)Nc2cccc(NC(=O)c3cccc(C#N)c3)c2)c1 | – | – | 49.1 µM | > 100 µM | > 100 µM | > 100 µM | 86.5 µM | > 100 µM | > 100 µM | > 100 µM | – | – | > 100 µM | > 100 µM | > 100 µM | > 100 µM | 75.9 µM | > 100 µM | 95.7 µM | > 100 µM |
| CC(C)C[C@H](NC(=O)[C@H]1O[C@@H]1C(=O)O)C(=O)NCCc1ccc(O)cc1 | > 100 µM | > 100 µM | > 100 µM | > 100 µM | > 100 µM | > 100 µM | > 100 µM | > 100 µM | > 100 µM | > 100 µM | – | – | > 100 µM | > 100 µM | > 100 µM | > 100 µM | > 100 µM | > 100 µM | > 100 µM | > 100 µM |
| C=C(C)C(=O)OC1CC2=CC(CC3(C)OC3C3OC(=O)C(=C)C13)OC2=O (stereo not given) | 1.63 µM | 5.59 µM | – | 39 µM | – | 34.8 µM | – | 15 µM | – | 17.3 µM | – | 30.2 µM | – | 13.7 µM | – | 15.4 µM | – | 37.1 µM | – | – |
| Nc1ccn(CCO)c(=O)n1 | – | > 100 µM | – | > 100 µM | – | > 100 µM | – | – | – | > 100 µM | – | > 100 µM | – | > 100 µM | – | > 100 µM | – | – | – | – |
